How the values were obtained:
[1] = system: Primary human bronchial epithelial cells from a ΔF508 homozygous CF donor (CF-HBE cells); experiment: TECC24 recording of CFTR-mediated transepithelial chloride transport, AUC fold over benchmark VX-809 @10 μM; type: cell-based; details: 48 hours incubation, AUC of forskolin-stimulated IEQ
Method: The effects of a test agent on CFTR-mediated transepithelial chloride transport is measured using TECC24 recording analysis. Test agents are solubilized in DMSO. Solubilized test agents are mixed with incubation medium containing DMEM/F12, Ultroser G (0.5%; Crescent Chemical, catalog #67042), Hyclone Fetal Clone II (2%; GE Healthcare, catalog #SH30066.02), bovine brain extract (0.25%; Lonza, catalog #CC-4098), insulin ([…]), IL-13 (10 ng/mL), hydrocortisone (20 nM), transferrin ([…]), triiodothyronine (500 nM), ethanolamine (250 nM), epinephrine (1.5 μM), phosphoethanolamine (250 nM), and retinoic acid (10 nM). Primary human bronchial epithelial cells from a ΔF508 homozygous CF donor (CF-HBE cells; from University of North Carolina Cystic Fibrosis Tissue Procurement Center), grown on Transwell HTS 24-well cell culture inserts (Costar, catalog #3378), are exposed to test agents or controls dissolved in incubation medium. The CF-HBE cells are cultured at 36.5° C. for 48 hours before TECC24 recordings are performed in the presence or absence of test agent, a positive control or vehicle (DMSO).
Following incubation, the transwell cell culture inserts containing the test agent or control-treated CF-HBE cells are loaded onto a TECC24 apparatus (TECC v7 or MTECC v2; EP Design) to record the transepithelial voltage (VT) and resistance (TEER) using 4 AgCl electrodes per well configured in current-clamp mode. The apical and basolateral bath solutions both contain (in mM) 140 NaCl, 5 KCl, 2 CaCl2), 1 MgCl2, 10 Hepes, and 10 glucose (adjusted to pH 7.4 with NaOH). To inhibit basal Na+ absorption, the ENaC inhibitor benzamil (10 μM) is added to the bath. Then, the adenylate cyclase activator, forskolin (10 μM), is added to the bath to activate CFTR. The forskolin-stimulated Cl− transport is halted by addition of CFTR inhibitor-172 (20 μM) to the bath at the end of the experiment to confirm specificity. VT and TEER recordings are digitally acquired at routine intervals using TECC or MTECC software (EP Design). VT and TEER are transformed into equivalent transepithelial Cl− current (IEQ), and the Area Under the Curve (AUC) of the IEQ time course between forskolin and CFTR inhibitor-172 addition is generated using Excel (Microsoft). Efficacy is expressed as the ratio of the test agent AUC divided by vehicle AUC. EC50s based on AUC are generated using the non-linear regression log(agonist) vs. response function in Prism software (Graphpad) with HillSlope fixed=1.
If a test agent increases the AUC of the forskolin-stimulated IEQ relative to VX-809 in CF-HBE cells, and this increase is inhibited by CFTR inhibitor-172, then the test agent is considered a CFTR corrector. TECC assay efficacy is expressed as the ratio of the test agent AUC divided by VX-809 AUC. As set forth in Table 2 below, a TECC value less than 3 is marked “A”; a value between 3 and 6 is marked “B”; a value between 6 and 20 is marked “C”.

[2] = target: T1, Purified recombinant NBD1 (Homo sapiens, UniProt P13569); experiment: Aggregation analysis using differential static light scattering (DSLS): thermal stability of NBD1; type: binding; details: NBD1 0.2 mg/ml; Tagg of compound well minus average Tagg of DMSO control wells
T1 construct: Purified recombinant NBD1 was produced using previously described methods; made in house
Method: Purified recombinant NBD1 was produced using previously described methods (A. Schmidt, J. L. Mendoza, P. J. Thomas (2011) Biochemical and Biophysical Approaches to Probe CFTR Structure (365-376) M. D. Amaral, K. Kunzelmann (eds.), Cystic Fibrosis, Methods in Molecular Biology 741, Springer Science+Business Media). The effect of test compounds on thermal stability of NBD1 was evaluated by differential static light scattering (DSLS) using the Harbinger Stargazer-384 instrument (Epiphyte Three, Toronto, Canada). Test compounds were dissolved and diluted to desired concentrations in 100% DMSO. The compounds or DMSO controls (100 nL) were stamped into wells of a […] low volume optical plate (Corning Inc., Corning, NY) using the Echo 555 acoustic liquid handler (Labcyte Inc., San Jose, CA).
NBD1 protein was diluted to 0.2 mg/ml in S200 buffer (50 mM Tris-HCl, 150 mM NaCl, 5 mM MgCl2, 2 mM ATP, 2 mM DTT, pH7.6) containing 1% glycerol. 10 uL of protein solution was aliquoted into the 384-well plate harboring the test compounds and 10 uL mineral oil was overlaid onto the protein solution, using the epMotion robotic liquid handler (Eppendorf North America, Hauppauge, NY). After placing into the Stargazer instrument, the plate was heated at 1° C. per minute to 70° C. Images were captured from 25° C. to 70° C. every 0.5° C. At the end of the experiment run, instrument software integrated image files and analyzed data automatically. A […] regression curve was generated for each well, representing the increase in light scattering over time. A temperature of aggregation (Tagg) was calculated based on the inflection point of the curve. To better compare data across experiments the average Tagg for DMSO control wells was calculated and subtracted from values for wells containing compounds to obtain a “ΔTagg” value. These ΔTagg values reflect stabilizing efficacy of the compounds. As set forth in Table 2 below, an ΔTagg value less than or equal to 5° C. is marked “A”; a value above 5° C. and less than or equal to 10° C. is marked “B”; a value greater than 10° C. and less than or equal to 25° C. is marked “C”.

T1 sequence (P13569 423-646 limits assumed): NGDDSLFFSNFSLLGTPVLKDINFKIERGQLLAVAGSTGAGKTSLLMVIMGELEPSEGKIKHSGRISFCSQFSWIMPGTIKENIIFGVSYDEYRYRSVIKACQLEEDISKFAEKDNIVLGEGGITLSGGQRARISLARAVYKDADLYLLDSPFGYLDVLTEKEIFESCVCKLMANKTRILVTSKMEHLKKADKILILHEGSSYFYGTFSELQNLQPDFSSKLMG

Structure (SMILES)	TECC (test agent AUC divided by VX-809 AUC) [1]	DSLS (ΔTagg) [2]
CC1(c2cccc(CCC(=O)O)c2F)CCCCOC(=O)NCCc2c(c(F)cc3[nH]ccc23)Oc2ccc(F)c(c2)-c2ncc1[nH]2 (stereo not drawn) [Compound 80, 3-[3-(23,29-Difluoro-6-methyl-12-oxo-11,25-dioxa-3,13,20,31-tetrazapentacyclo[24.3.1.12,5.016,24.017,21]hentriaconta-1(30),2,4,16,18,21,23,26,28-nonaen-6-yl)-2-fluoro-phenyl]propanoic acid]	B (a value between 3 and 6 is marked “B”)	C (a value greater than 10 °C and less than or equal to 25 °C is marked “C”)
Cn1nc2nc1-c1cc(ccc1F)Oc1c(F)cc3[nH]ccc3c1CCNC(=O)OCC(C)(C)CC[C@@]2(C)c1cccc(CCC(=O)O)c1 (single isomer, unassigned) [Compound 98B]	B (a value between 3 and 6 is marked “B”)	A (an ΔTagg value less than or equal to 5 °C is marked “A”)
CN1CC(C)(C)COCC(C)(c2cccc(CCC(=O)O)c2)c2cnc([nH]2)-c2cc(ccc2F)Oc2c(F)cc3[nH]ccc3c2CCC1=O (single isomer, unassigned) [Compound 20B, 3-[3-(23,29-Difluoro-6,10,10,12-tetramethyl-13-oxo-8,25-dioxa-3,12,20,31-tetrazapentacyclo[24.3.1.12,5.016,24.017,21]hentriaconta-1(30),2,4,16,18,21,23,26,28-nonaen-6-yl)phenyl]propanoic acid]	A (a TECC value less than 3 is marked “A”)	A (an ΔTagg value less than or equal to 5 °C is marked “A”)
C[C@@H](Cc1cccc(C2(C)CCCC(C)(C)NS(=O)(=O)CCc3c(c(F)cc4[nH]ccc34)Oc3ccc(F)c(c3)-c3nc2nn3C)c1)C(=O)O (stereo partly drawn) [Compound 116, (2S)-3-[3-(22,28-difluoro-3,6,10,10-tetramethyl-12,12-dioxo-24-oxa-12λ6-thia-3,4,11,19,30-pentazapentacyclo[23.3.1.12,5.015,23.016,20]triaconta-1(29),2(30),4,15,17,20,22,25,27-nonaen-6-yl)phenyl]-2-methyl-propanoic acid]	B (a value between 3 and 6 is marked “B”)	C (a value greater than 10 °C and less than or equal to 25 °C is marked “C”)
CC1(C)CNC(=O)CCc2c(c(F)cc3[nH]ccc23)Oc2ccc(F)c(c2)-c2ncc([nH]2)C(C)(c2cccc(CCC(=O)O)c2)CCOC1 (single isomer, unassigned) [Compound 67B, 3-[3-(24,30-difluoro-6,11,11-trimethyl-14-oxo-9,26-dioxa-3,13,21,32-tetrazapentacyclo[25.3.1.12,5.017,25.018,22]dotriaconta-1(31),2,4,17,19,22,24,27,29-nonaen-6-yl)phenyl]propanoic acid]	A (a TECC value less than 3 is marked “A”)	B (a value above 5 °C and less than or equal to 10 °C is marked “B”)
C[C@@H](Cc1cccc(C2(C)CCCC(C)(C)N(C)S(=O)(=O)CCc3c(c(F)cc4[nH]ccc34)Oc3ccc(F)c(c3)-c3nc2nn3C)c1)C(=O)O (single isomer, unassigned) [Compound 117B]	B (a value between 3 and 6 is marked “B”)	C (a value greater than 10 °C and less than or equal to 25 °C is marked “C”)
Cn1nc2nc1-c1cc(ccc1F)Oc1c(F)cc3[nH]ccc3c1COC(=O)NC(C)(C)CCCC2(C)c1cccc(CCC(=O)O)c1 (single isomer, unassigned) [Compound 99A, 3-[3-(22,28-difluoro-3,6,10,10-tetramethyl-12-oxo-13,24-dioxa-3,4,11,19,30-pentazapentacyclo-[23.3.1.12,5.015,23.016,20]-triaconta-1(29),2(30),4,15,17,20,22,25,27-nonaen-6-yl)phenyl]propanoic acid]	B (a value between 3 and 6 is marked “B”)	C (a value greater than 10 °C and less than or equal to 25 °C is marked “C”)
CC1(C)CCCC(C)(c2cccc(CCC(=O)O)c2)c2cnc([nH]2)-c2cc(ccc2F)Oc2c(F)cc3[nH]ccc3c2CCC(=O)NC1 (stereo not drawn) [Compound 12, 3-[3-(23,29-Difluoro-6,10,10-trimethyl-13-oxo-25-oxa-3,12,20,31-tetrazapentacyclo[24.3.1.12,5.016,24.017,21]hentriaconta-1(30),2,4,16,18,21,23,26,28-nonaen-6-yl)phenyl]propanoic acid]	–	C (a value greater than 10 °C and less than or equal to 25 °C is marked “C”)
CN1Cc2c(c(F)cc3[nH]ccc23)Oc2ccc(F)c(c2)-c2ncc([nH]2)C(c2cccc(CCC(=O)O)c2)CCCCCCC1=O (stereo not drawn) [Compound 9, 3-[3-(23,29-Difluoro-14-methyl-13-oxo-25-oxa-3,14,20,31-tetrazapentacyclo[24.3.1.12,5.016,24.017,21]hentriaconta-1(30),2,4,16(24),17(21),18,22,26,28-nonaen-6-yl)phenyl]propanoic acid]	–	C (a value greater than 10 °C and less than or equal to 25 °C is marked “C”)
CN1Cc2c(c(F)cc3[nH]ccc23)Oc2ccc(F)c(c2)-c2ncc([nH]2)C(C)(c2cccc(CCC(=O)O)c2)CCCCCCC1=O (stereo not drawn) [Compound 14, 3-[3-(23,29-Difluoro-6,14-dimethyl-13-oxo-25-oxa-3,14,20,31-tetrazapentacyclo[24.3.1.12,5.016,24.017,21]hentriaconta-1(30),2,4,16(24),17(21),18,22,26,28-nonaen-6-yl)phenyl]propanoic acid]	–	C (a value greater than 10 °C and less than or equal to 25 °C is marked “C”)
CCOC(=O)CCc1cccc(C2(C)CCCC(C)(C)CN(C)C(=O)CCc3c(c(F)cc4[nH]ccc34)Oc3ccc(F)c(c3)-c3ncc2[nH]3)c1 (single isomer, unassigned) [Compound 48B, ethyl 3-[3-(23,29-difluoro-6,10,10,12-tetramethyl-13-oxo-25-oxa-3,12,20,31-tetrazapentacyclo-[24.3.1.12,5.016,24.017,21]hentriaconta-1(30),2,4,16,18,21,23,26,28-nonaen-6-yl)phenyl]propanoate]	–	A (an ΔTagg value less than or equal to 5 °C is marked “A”)

From patent US20250197420A1, “MACROCYCLIC COMPOUNDS, COMPOSITIONS, AND METHODS OF USING THEREOF” (Sionna Therapeutics Inc., priority 2022, published 2025)
